Patent publication US12544395B2, “Combination compositions comprising a beta-lactamase inhibitor and uses thereof” (priority 2018, dated 2026)
Values after ≈ are worked out from the molar mass of the structure shown. Values joined by “and” are separate entries in the source; they are usually repeats but may differ in a detail not shown here. Equal entries are not always repeated. Each block holds one compound with its values, some of them ahead of it.

What was measured:
[1] = Metabolic stability in intestinal S9; assay type: in vitro ADME, CD-1 mouse; details: Mouse, test conc. 3 μM
[2] = Metabolic stability in liver S9; assay type: in vitro ADME, Sprague-Dawley rat; details: Rat, test conc. 3 μM
[3] = Metabolic stability in intestinal S9; assay type: in vitro ADME, beagle dog; details: Dog, test conc. 3 μM
[4] = Oral dosing formulation in Solutol HS-15:Water, solution/emulsion stability; assay type: physicochemical
Procedure: (§1) This study included dose concentrations ranging from 2-120 mg/mL.
as §1

[5] = Metabolic stability in liver S9; assay type: in vitro ADME, cynomolgus monkey; details: Monkey, test conc. 3 μM
[6] = Metabolic stability in intestinal S9; assay type: in vitro ADME; details: Human, test conc. 3 μM
[7] = Metabolic stability in liver S9; assay type: in vitro ADME, beagle dog; details: Dog, test conc. 3 μM
[8] = Metabolic stability in plasma; assay type: in vitro ADME, beagle dog; details: Dog, test conc. 3 μM
[9] = Metabolic stability in plasma; assay type: in vitro ADME, CD-1 mouse; details: CD-1, plasma; Mouse; test conc. 3 μM
[10] = Metabolic stability in intestinal S9; assay type: in vitro ADME, cynomolgus monkey; details: Monkey, test conc. 3 μM
[11] = Metabolic stability in plasma; assay type: in vitro ADME; details: cynomolgus, Monkey, test conc. 3 μM
[12] = Metabolic stability in liver S9; assay type: in vitro ADME, CD-1 mouse; details: Mouse, test conc. 3 μM
[13] = Metabolic stability in plasma; assay type: in vitro ADME; details: Human, test conc. 3 μM
[14] = Metabolic stability in intestinal S9; assay type: in vitro ADME, Sprague-Dawley rat; details: Rat, test conc. 3 μM
[15] = Metabolic stability in liver S9; assay type: in vitro ADME; details: Human, test conc. 3 μM
[16] = Single ascending dose pharmacokinetics, Solutol HS-15:Water (10:90); assay type: in vivo, Beagle dogs; details: Compound 1 300 mg/kg PO, non-fasted
[17] = Metabolic stability in plasma; assay type: in vitro ADME; details: Sprague-Dawley, Rat, test conc. 3 μM
[18] = system: ESBL-expressing Enterobacteriaceae (n = 33); assay: Broth microdilution MIC, ceftibuten/Compound 2 vs IV comparators; assay type: cell-based
[19] = system: OXA-48-expressing Enterobacteriaceae (n = 39); assay: as above
[20] = system: KPC-expressing Enterobacteriaceae (n = 77); assay: organism not typed; assay type: cell-based
[21] = system: AmpC/CMY-expressing Enterobacteriaceae (n = 44); assay: Broth microdilution MIC, ceftibuten/Compound 2 vs IV comparators; assay type: cell-based
[22] = Solutol HS-15:Water (10:90 v/v)
[23] = Solutol HS-15:Water (20:80 v/v)

SMILES: CCC(=O)N[C@H]1Cc2cccc(C(=O)OCOC(=O)C(CC)CC)c2OB1O [Compound 1, ((2-Ethylbutanoyl)oxy)methyl (R)-2-hydroxy-3-propionamido-3,4-dihydro-2H-benzo[e][1,2]oxaborinine-8-carboxylate]
Intestinal S9 Half-life [1]: 1.1 min
Liver S9 Half-life [2]: 2.3 min
Intestinal S9 Half-life [3]: 49.0 min
homogeneous and chemically-stable solution up to a concentration [4, 22]: ≤ 30 mg/mL
physically- and chemically-stable emulsion at concentrations [4, 22]: 31 to 100 mg/mL
homogeneous and chemically-stable solution up to a concentration [4, 23]: ≤ 60 mg/mL
physically- and chemically-stable emulsion at concentrations [4, 23]: 61 to 200 mg/mL
Liver S9 Half-life [5]: 0.8 min
Intestinal S9 Half-life [6]: 2.9 min
Liver S9 Half-life [7]: 0.5 min
Plasma Half-life [8]: 43.9 min
half-life at 3 μM [9]: 4.6 min
Intestinal S9 Half-life [10]: 11.2 min
half-life at 3 μM [11]: 22 min
Liver S9 Half-life [12]: 1.2 min
Plasma Half-life [13]: 10.7 min
Intestinal S9 Half-life [14]: 3.9 min
Liver S9 Half-life [15]: 1.0 min
dogs exhibiting emesis [16]: 3 of 4
half-life at 3 μM [17]: 1.6 min

SMILES: CN(C)c1cc(NC(=O)CNC(C)(C)C)c(O)c2c1C[C@H]1C[C@H]3[C@H](N(C)C)C(O)=C(C(N)=O)C(=O)[C@@]3(O)C(O)=C1C2=O [Tigecycline]
Number of strains at MIC value 0.5 mg/L ([18]; ESBL-expressing (n = 33)): 11
Number of strains at MIC value 1 mg/L ([18]; ESBL-expressing (n = 33)): 3
Number of strains at MIC value 2 mg/L ([18]; ESBL-expressing (n = 33)): 3
Number of strains at MIC value 4 mg/L ([18]; ESBL-expressing (n = 33)): 2
Number of strains at MIC value 8 mg/L ([18]; ESBL-expressing (n = 33)): 0
Number of strains at MIC value 16 mg/L ([18]; ESBL-expressing (n = 33)): 0
Number of strains at MIC value […] ([18]; ESBL-expressing (n = 33)): 4 and 10
Number of strains at MIC value ≤0.06 mg/L ([18]; ESBL-expressing (n = 33)): 0
Number of strains at MIC value ≥32 mg/L ([18]; ESBL-expressing (n = 33)): 0
MIC50 ([18]; iv): 0.5 µg/mL (≈ 0.854 µM)
MIC90 ([18]; iv): 2 µg/mL (≈ 3.41 µM)
MIC50 [19]: 0.5 µg/mL (≈ 0.854 µM)
MIC90 [19]: 2 µg/mL (≈ 3.41 µM)
Number of strains at MIC value 0.5 mg/L ([20]; KPC-expressing (n = 77)): 19
Number of strains at MIC value 1 mg/L ([20]; KPC-expressing (n = 77)): 34
Number of strains at MIC value 2 mg/L ([20]; KPC-expressing (n = 77)): 15
Number of strains at MIC value 4 mg/L ([20]; KPC-expressing (n = 77)): 5
Number of strains at MIC value 8 mg/L ([20]; KPC-expressing (n = 77)): 0
Number of strains at MIC value 16 mg/L ([20]; KPC-expressing (n = 77)): 0
Number of strains at MIC value […] ([20]; KPC-expressing (n = 77)): 0 and 4
Number of strains at MIC value ≤0.06 mg/L ([20]; KPC-expressing (n = 77)): 0
Number of strains at MIC value ≥32 mg/L ([20]; KPC-expressing (n = 77)): 0
MIC50 ([20]; iv): 1 µg/mL (≈ 1.71 µM)
MIC90 ([20]; iv): 2 µg/mL (≈ 3.41 µM)
Number of strains at MIC value 0.5 mg/L ([21]; AmpC/CMY-expressing (n = 44)): 8
Number of strains at MIC value 1 mg/L ([21]; AmpC/CMY-expressing (n = 44)): 10
Number of strains at MIC value 2 mg/L ([21]; AmpC/CMY-expressing (n = 44)): 10
Number of strains at MIC value 4 mg/L ([21]; AmpC/CMY-expressing (n = 44)): 4
Number of strains at MIC value 8 mg/L ([21]; AmpC/CMY-expressing (n = 44)): 2
Number of strains at MIC value 16 mg/L ([21]; AmpC/CMY-expressing (n = 44)): 0
Number of strains at MIC value […] ([21]; AmpC/CMY-expressing (n = 44)): 4 and 6
Number of strains at MIC value ≤0.06 mg/L ([21]; AmpC/CMY-expressing (n = 44)): 0
Number of strains at MIC value ≥32 mg/L ([21]; AmpC/CMY-expressing (n = 44)): 0
MIC50 ([21]; iv): 1 µg/mL (≈ 1.71 µM)
MIC90 ([21]; iv): 4 µg/mL (≈ 6.83 µM)

half-life at 3 μM ([1]; CD-1, intestinal S9): 2.5 min
half-life at 3 μM ([2]; Sprague-Dawley, liver S9): 10.2 min
half-life at 3 μM ([3]; beagle, intestinal S9): > 120 min
half-life at 3 μM ([5]; cynomolgus, liver S9): 4.3 min
half-life at 3 μM ([6]; intestinal S9): 35.6 min
half-life at 3 μM ([7]; beagle, liver S9): 4.7 min
half-life at 3 μM ([8]; beagle, plasma): 26.2 min
half-life at 3 μM [9]: 0.6 min
half-life at 3 μM ([10]; cynomolgus, intestinal S9): 16.9 min
half-life at 3 μM [11]: 12.4 min
half-life at 3 μM ([12]; CD-1, liver S9): 2.4 min
half-life at 3 μM ([13]; plasma): 4.8 min
half-life at 3 μM ([14]; Sprague-Dawley, intestinal S9): 7.4 min
half-life at 3 μM ([15]; liver S9): 3.4 min
half-life at 3 μM [17]: 0.8 min
SMILES: COCC1=C(C(=O)OC(C)OC(=O)OC(C)C)N2C(=O)[C@@H](NC(=O)/C(=N\OC)c3csc(N)n3)[C@H]2SC1 (stereo partly shown) [Cefpodoxime proxetil]
